Data set [1] has as its target T1, MT2 (Homo sapiens, UniProt P49286).
T1 sequence (P49286 1-362): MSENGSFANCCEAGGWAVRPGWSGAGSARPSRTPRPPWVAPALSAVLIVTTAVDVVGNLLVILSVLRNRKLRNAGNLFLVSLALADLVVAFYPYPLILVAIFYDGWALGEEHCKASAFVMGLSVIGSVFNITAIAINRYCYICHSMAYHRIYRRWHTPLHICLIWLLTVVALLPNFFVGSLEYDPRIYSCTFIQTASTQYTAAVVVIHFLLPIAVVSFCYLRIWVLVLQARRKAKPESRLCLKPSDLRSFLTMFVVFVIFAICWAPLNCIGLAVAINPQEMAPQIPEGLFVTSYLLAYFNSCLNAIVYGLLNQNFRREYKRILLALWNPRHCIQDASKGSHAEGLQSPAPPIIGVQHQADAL
Particulars: Ki(MT1)/Ki(MT2).
Method: (§8) Competitive receptor binding characteristics of melatonin and the 15 tested compounds towards human MT1 and MT2 stably expressed in Chinese hamster ovary (CHO) cells were determined using intact cell preparation pre-incubated with 1 nM [^3H]melatonin.
(§9) Individual melatonin receptor subtype (either MT1 or MT2) was stably co-expressed with a G protein chimera 16z25 in Chinese hamster ovary (CHO) cells, hereafter denoted as CHO-hMT1 and CHO-hMT2, respectively. […] Single cell-derived colonies of the stable lines with sufficiently high receptor density and robust responses in the fluorometric assay (as described below) were isolated from the pool of transfected cell. Usage of these clonal lines was limited to 15 passages to prevent degradation of signal detection.
(§10) Competitive binding assays were performed as described [26]. Cells were suspended in binding buffer (50 mM Tris, 2 mM MgCl2, 1 mM EGTA, pH 7.4) in the density of 1.5×10^5 cell/ml. 1 nM [^3H]melatonin and increasing concentrations of a tested compound was included. Cells were incubated at 4°C for 60 min with intermittent agitation and the reaction was stopped by rapid filtration through GF/C filters pre-soaked in 10 mM Tris, pH 7.4 and washed with 1 ml of prechilled binding buffer. Retained radioactivity was measured with Wallac 1450 Microbeta Jet scintillation counter. Competition curves were drawn as one-site competition nonlinear regression model using GraphPad Prism 3.03 to the data which were means ± SEM of 3–4 independent experiments performed in duplicates. In every assay, melatonin was included as standard reference with highly reproducible Ki values, which were calculated using the Cheng-Prusoff equation.

For data set [2], the target named is T2, MT1 (Homo sapiens, UniProt P48039). Kind of data set: biochemical. Particulars: for Emax: read-out: MT1 %Resp±SEM (percentage of melatonin-mediated displacement of radioligand binding).
T2 sequence (P48039 whole entry): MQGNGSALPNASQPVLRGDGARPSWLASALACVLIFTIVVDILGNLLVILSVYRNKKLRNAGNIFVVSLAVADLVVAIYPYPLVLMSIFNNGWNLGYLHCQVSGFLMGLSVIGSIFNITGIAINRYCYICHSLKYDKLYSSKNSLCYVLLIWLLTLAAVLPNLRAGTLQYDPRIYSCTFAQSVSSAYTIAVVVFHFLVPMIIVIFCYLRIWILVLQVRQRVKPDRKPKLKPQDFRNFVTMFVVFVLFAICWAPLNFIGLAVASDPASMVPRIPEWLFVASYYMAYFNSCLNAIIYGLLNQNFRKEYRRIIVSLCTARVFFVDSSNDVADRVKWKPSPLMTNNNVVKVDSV
Method: as §8, §9, §10
Data set [3] has as its target T1, MT2. Kind of data set: biochemical. Particulars: for Ki: MT2 Ki, calculated from mean pIC50 (Cheng-Prusoff), 1 nM [3H]melatonin, intact CHO cells; for Emax: read-out: MT2 %Resp±SEM (percentage of melatonin-mediated displacement of radioligand binding).
Method: as §8, §9, §10
Data set [4] addresses T2, MT1. Kind of data set: Intracellular Ca2+ mobilization (FLIPR) in MT1-CHO cells co-expressing 16z25. It is filed as cell-based. The arrangement: expressed in transfected cells. As to the method:
(§1) Tested compounds in different concentrations were diluted in assay buffer in 5× of the final desired concentrations in a V-bottomed microplate, and both the cell and compound plates were put into the fluorometric imaging plate reader FLIPR^TETRA (Molecular Devices, Sunnyvale, CA). […] The peak of the time course of fluorescence changes was expressed in relative fluorescence units (RFU). Dose response curves were constructed by non-linear regression using GraphPad Prism 3.
(Calcium assays in cells follow changes in intracellular calcium, usually with a dye or a luminescent sensor.)

Data set [5] addresses T1, MT2. Kind of data set: Intracellular Ca2+ mobilization (FLIPR) in MT2-CHO cells co-expressing 16z25. It is filed as cell-based. Details: expressed in transfected cells. As to conditions: for EC50 / Ca2+ mobilization activity at MT2 (in words) / MT2 EC50, Ca2+ mobilization: MT2-CHO cells, FLIPR; for EC50 / MT2 EC50, Ca2+ mobilization: calculated from mean pEC50, NSR = no significant response for up to 30 µM; for EC50: read-out: MT2 EC50, Ca2+ mobilization; for Emax: MT2, percentage of melatonin (MT)-mediated stimulation of Ca2+ signal, read-out: MT2 %Resp ±SEM, Ca2+ signal; for shift of melatonin dose-response curve in FLIPR assay, MT2-CHO (competitive antagonism): preincubation with 10 µM or 1 µM of 7e or 7f. The procedure:
as §1

The target of data set [6] is T2, MT1. Kind of data set: Inhibition of forskolin-stimulated cAMP accumulation in MT1-CHO cells. The format is cell-based. The arrangement: expressed in transfected cells. As to the method:
(§2) Both MT1 and MT2 are classified as Gi-coupled receptors with their activation leading to inhibition of intracellular cAMP production. The ability of the tested compounds to activate the endogenously expressed Gi-mediated inhibition of cAMP production was therefore examined.
(§3) All the responses were expressed as the percentage of that induced by forskolin alone (as 100%).
(§4) 2×10^5 cells were seeded in each well of 12-well plates and grown for overnight. Each well was labeled with 1 ml of [^3H]adenine (1 µCi/ml) in F-12K medium containing 1% FBS (vol/vol) for overnight. The labeling media were then replaced by 1 ml of 20 mM HEPES-buffered F-12K containing 1 mM isobutylmethylxanthine (IBMX) and the tested compounds at desired concentrations, and incubated at 37°C for 30 min. The reaction was stopped by aspiration and adding 1 ml prechilled 5% trichloroacetic acid (w/v) with 1 mM ATP, and stored at 4°C for 30 min. [^3H]cAMP was extracted from the pool of labeled adenosine nucleotides by sequential ion-exchange chromatography as previously described. The radioactivity of labeled cAMP and total labeled nucleotide fractions separated by chromatography were estimated by scintillation counting. Inhibition curves were constructed by non-linear regression using GraphPad Prism 3.

In data set [7] the target is T1, MT2. Kind of data set: Inhibition of forskolin-stimulated cAMP accumulation in MT2-CHO cells. The format is cell-based. Details: expressed in transfected cells. As to conditions: for IC50: MT2-CHO cells, 50 µM forskolin, calculated from mean pIC50, read-out: MT2 IC50, inhibition of cAMP production. As to the method: as §2, §3, §4
Data set [8] concerns the target T2, MT1. Kind of data set: Immunodetection of ERK phosphorylation in MT1-CHO cells. As to conditions: immunoblot. It is filed as cell-based. Details: expressed in transfected cells. The procedure:
(§5) CHO cells expressing MT1 or MT2 were serum-starved before treating with the indicated concentrations of melatonin or individual tested compounds. Resolved proteins were electrotransferred for immunodetection using phosphorylated ERK-specific antibody.
(§6) (A) CHO cells expressing MT1 or MT2 were treated with the indicated concentrations of 7e or luzindole in the absence or presence of a fixed concentration of melatonin (MLT) (for both MT1 or MT2) or 7b (for MT2 only). Other experimental details were as to the legend of Figure 5. Data shown were representative blots of three separate trials. (B) CHO cells expressing MT2 were treated with increasing concentrations (1 ρM – 1 µM) of melatonin in the absence or presence of 10 µM or 1 µM of 7e or 7f. Other experimental details were as to the legend of Figure 4.
(§7) 2×10^5 cells were seeded into each well of 12-well plates for overnight before serum withdrawal for 4 h to reduce the basal ERK phosphorylation. Tested compounds were diluted in serum-free culture medium at desired concentrations and treated the cells for 5 min. Reactions was stopped by aspiration and then adding 150 µl of lysis buffer with protease inhibitors (50 mM Tris–HCl, pH 7.5, 100 mM NaCl, 5 mM EDTA, 40 mM NaP2O7, 1% Triton X-100, 1 mM dithiothreitol, 200 µM Na3VO4, 100 µM phenylmethylsulfonyl fluoride, 2 µg/ml leupeptin, 4 µg/ml aprotinin, and 0.7 µg/ml pepstain). Cells were allowed to lyse for 30 min at 4°C with agitation, and the collected total cell lysates were cleared by centrifugation. Protein samples were resolved in SDS-PAGE and transferred to nitrocellulose membranes using iBlot system (Invitrogen). Phosphorylated ERK was detected using specific antibodies as described previously. Chemiluminescence signals on the blots were detected on X-ray films.

Data set [9] has as its target T2, MT1. As to conditions: 1 nM [3H]melatonin, intact CHO cells, 4°C 60 min; mean ± SEM of 3–5 trials; NSB = no specific binding for up to 30 µM.
Method: as §8, §9, §10
Data set [10] concerns the target T1, MT2. Kind of data set: Immunodetection of ERK phosphorylation in MT2-CHO cells. It is filed as cell-based. Details: expressed in transfected cells. As to conditions: for suppression of melatonin-induced ERK phosphorylation in MT2-CHO cells (antagonism): 1 nM melatonin (MLT), 7e and 7f at 10 µM; for ERK phosphorylation in MT2-CHO cells (in words): immunoblot. As to the method:
as §5, §6, §7

Marks after values point to notes of the source that are not given here. A value given as a limit tells only on which side of the number the result lay.
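Throughout, for MT1 pIC50±SEM: competitive radioligand displacement on intact CHO cells stably co-expressing human MT1 together with the G protein chimera 16z25, using rising concentrations of each compound.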
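Throughout, for Selectivity, ratio Ki(MT1)/Ki(MT2): competition binding on intact CHO cells stably co-expressing human MT2 with G protein chimera 16z25, displacing [3H]melatonin at 4°C over 60 min, melatonin run as reference.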

With `COc1cc(COc2cc3ccn(C)c(=O)c3cc2OC)cc(OC)c1` [7c, 6-(3,5-Dimethoxy-benzyloxy)-7-methoxy-2-methylisoquinolin-1(2H)-one], at MT2 [1], the “Selectivity, ratio Ki(MT1)/Ki(MT2)” value is given as 37.6. For the same compound, the IC50 (in general, the concentration needed to halve the response being measured) against MT1 [2] is 57500 nM; at MT2 [3], 1170 nM; at MT2 [7], 2460 nM. Also, the results for the inhibition constant Ki at MT1 [2] and on MT2 [3] were 13100 nM and 350 nM, respectively. The Emax on MT1 [2] worked out at 41 ± 9%; on MT2 [3], 73 ± 9%; at MT2 [5] it was 90 ± 16%. For the same compound, the EC50 (in general, the concentration that produces a half-maximal response) at MT1 [4] was 266 nM; at MT2 [5], 21 nM. In addition, the “MT1 %Resp ±SEM, Ca2+ signal” value at MT1 [4] (percentage of melatonin (MT)-mediated stimulation of Ca2+ signal) worked out at 65±10%. Besides, on MT2 [5] (from concentration response curves, Figure 4), the “concentration to induce exclusive MT2 activation (Ca2+ signal)” value is given as less than 10 nM. Further, the “fold less potent than 7b (EC50, Ca2+ signal, MT2)” value at MT2 [5] (relative to 7b, MT2-CHO) is roughly 70 fold. In addition, on MT1 [6] (MT1-CHO cells, 50 µM forskolin, calculated from mean pIC50, NSR = no significant response for up to 10 µM), the “MT1 IC50, inhibition of cAMP production” value is recorded as “NSR ^b”. On MT2 [7] (extrapolated %Inhmax from non-linear regression, MT2-CHO), the “MT2 %Inhmax ±SEM, extrapolated” value was 72±3 ^c %. The “concentration inducing weak ERK phosphorylation in MT1-CHO cells” value at MT1 [8] is listed as greater than 1 µM.

With `COc1ccccc1COc1cc2ccn(C)c(=O)c2cc1OC` [7d, 7-Methoxy-6-(2-methoxy-benzyloxy)-2-methylisoquinolin-1(2H)-one], the melting point (commonly the temperature of the solid-liquid transition) was 150 to 152 °C. Further, the “MT1 pIC50±SEM” value at MT1 [9] is listed as “NSB”. On MT2 [3], half-maximal inhibition (IC50) was put at 2240 nM; the Ki (as a rule, a dissociation constant, usually derived from enzyme kinetics or from competition with a known ligand) was 674 nM; the Emax was found to be 79 ± 5%. Besides, the “reduction of ability to trigger Ca2+ signal on moving methoxy from meta to ortho (vs 7b)” value on MT2 [5] (MT2-CHO) is 2 orders of magnitude. On MT2 [5], the EC50 was 25.7 nM and the Emax was determined as 85 ± 22%. For the same compound, the “inhibition of cAMP levels in MT1-CHO cells (in words)” value at MT1 [6] (forskolin-stimulated) is “observable inhibition”. Further, the “MT1 %Inhmax ±SEM” value on MT1 [6] (maximal percentage inhibition of the forskolin-elevated cAMP level, MT1-CHO) came out at 33±13%. For the same compound, the IC50 on MT1 [6] (read-out: MT1 IC50, inhibition of cAMP production) stood at 396 nM. Also, the IC50 at MT2 [7] is 247 nM. Further, at MT2 [7] (maximal percentage inhibition of the forskolin-elevated cAMP level, MT2-CHO), the “MT2 %Inhmax ±SEM” value turned out to be 59±5%.

In turn, `COc1ccc(COc2cc3ccn(C)c(=O)c3cc2OC)cc1` [7e, 7-Methoxy-6-(4-methoxy-benzyloxy)-2-methylisoquinolin-1(2H)-one] displayed a melting point of 170 to 172 °C. Moreover, the “MT1 pIC50±SEM” value at MT1 [9] is reported as “NSB”. At MT2 [3], half-maximal inhibition (IC50) required 1120 nM, the Ki was 334 nM and the Emax is 47 ± 5%. Moreover, on MT2 [5], the “Ca2+ mobilization activity at MT2 (in words)” value (from here on “Ca2+ mobilization activity”) is given as “null response”; the “MT2 EC50, Ca2+ mobilization” value is “NSR”; the “shift of melatonin dose-response curve in FLIPR assay, MT2-CHO (competitive antagonism)” value is listed as “parallel right shift”. The “suppression of melatonin-induced ERK phosphorylation in MT2-CHO cells (antagonism)” value on MT2 [10] is given as “reduced to almost the basal level”. In addition, at MT2 [10] (agonist 7b 100 nM, 7e at 10 µM), the “suppression of 7b-induced ERK phosphorylation in MT2-CHO cells (antagonism)” value is on record as “significantly suppressed”.

`COc1cc2c(=O)n(C)ccc2cc1OCc1ccc(C)cc1` [7f, 7-Methoxy-2-methyl-6-(4-methyl-benzyloxy)-isoquinolin-1(2H)-one] gave a melting point of 120 to 122 °C. Besides, the “Selectivity, ratio Ki(MT1)/Ki(MT2)” value at MT2 [1] is listed as 6.13. Moreover, on MT1 [2], the IC50 was 8910 nM, the Ki came out at 2040 nM and the Emax stood at 38 ± 10%. For the same compound, on MT2 [3], the IC50 was 1100 nM, the Ki was 333 nM and the Emax stood at 70 ± 6%. Besides, at MT2 [5], the “MT2 EC50, Ca2+ mobilization” value was “NSR” and the “shift of melatonin dose-response curve in FLIPR assay, MT2-CHO (competitive antagonism)” value was “parallel right shift”. The “suppression of melatonin-induced ERK phosphorylation in MT2-CHO cells (antagonism)” value on MT2 [10] is reported as “partial inhibition”.

`COc1cc2ccn(C)c(=O)c2cc1OCc1ccccc1` [14a, 7-Benzyloxy-6-methoxy-2-methylisoquinolin-1(2H)-one] yielded a melting point of 132 to 134 °C. Further, the “MT1 pIC50±SEM” value on MT1 [9] was “NSB”. At MT2 [3], the IC50 was 14800 nM, the Ki is 4460 nM and the Emax is 78 ± 8%. Also, on MT2 [5], the “Ca2+ mobilization activity” value was “basically inactive” and the “MT2 EC50, Ca2+ mobilization” value is “NSR”. Besides, the “ERK phosphorylation in MT2-CHO cells (in words)” value on MT2 [10] was “essentially inactive”.

`COc1cc2ccn(C)c(=O)c2cc1OCc1ccc(C)cc1` [14d, 6-Methoxy-2-methyl-7-(4-methyl-benzyloxy)-isoquinolin-1(2H)-one] yielded a melting point of 150 to 152 °C. The “MT1 pIC50±SEM” value on MT1 [9] was “NSB”. For the same compound, on MT2 [3], 13800 nM corresponded to half-maximal inhibition (IC50), the Ki was 4150 nM and the Emax was 73 ± 10%. Moreover, on MT2 [5], the “Ca2+ mobilization activity” value was “basically inactive” and the “MT2 EC50, Ca2+ mobilization” value is given as “NSR”. Moreover, the “ERK phosphorylation in MT2-CHO cells (in words)” value at MT2 [10] was “essentially inactive”.
